As a reminder, the Cmax is the highest concentration seen after dosing. For orientation: Tmax means the time at which the peak concentration occurs. A word on the half-life: it is how long it takes for the measured level to halve.

The nature of the data set: Pharmacokinetic study in rats after oral administration of Typhae Pollen / Typhae Pollen-Trogopterus Feces decoctions (plasma, UPLC-TQ/MS). The format is in vivo, female Sprague–Dawley (SD) rats. Particulars: n = 6, noncompartment model; for Cmax / Tmax / half-life: female, Sprague-Dawley, rat, po; for AUC0~t: rat plasma. As for the experimental part: An ACQUITY UPLC BEH C18 column (2.1 mm × 100 mm, 1.7 μm, Waters Corp., Milford, MA, USA) was applied and the column temperature was maintained at 35 °C. The mobile phase was composed of A (0.1 % aqueous formic acid) and B (acetonitrile) using a gradient elution of 5–10 % B at 0–1 min, 10–30 % B at 1–6 min, 30–40 % B at 6–7 min, 40–95 % B at 7–8 min, 95–5 % B at 8–9 min, […] with a flow rate set at 0.4 mL/min. The auto-sampler was conditioned at 4 °C and the injection volume was 5 μL.
Mass spectrometry detection was performed by using a Xevo Triple Quadrupole MS (Waters Corp., Milford, MA) equipped with an electrospray ionization source (ESI). The ESI source was set in positive ionization mode. The scanning mode was set multiple reaction monitoring (MRM) mode. Parameters set in the source were as follows: the capillary voltage at 1 kV; sampling cone voltage of 30 V; source temperature […]; desolvation temperature 550 °C; dwell time was automatically set by MassLynx (Waters Corp., Milford, MA, USA).
A 200 μL aliquot of plasma sample was added with 10 μL diphenhydramine hydrochloride working solution and 600 μL of methanol. After vortex for 2 min and centrifugation at 13,000 rpm for 10 min, the supernatant was transferred to another 1.5 mL tube and concentrated in the centrifuge enrichment apparatus at 37 °C.
Finally, each residue was reconstituted in 200 μL 70 % methanol, then vortexed for 3 min and centrifuged at 13,000 rpm for 10 min. 5 μL of supernatant was injected into the UPLC-TQ/MS system for analysis.
All experiments were performed on female Sprague–Dawley (SD) rats, weighing 220–250 g, obtained from Shanghai Slac Laboratory Animal Co., Ltd. (Shanghai, China). They were kept in plastic cages at 22 ± 2 °C and a relative humidity of 50–65 %, with free access to pellet food and water on a 12 h light/dark cycle. Animal welfare and experimental procedures strictly conformed to the Guide for the Care and Use of Laboratory Animals and the related ethics regulations of Nanjing University of Chinese Medicine.
For pharmacokinetic studies, the SD rats were divided into four groups randomly (n = 6 per group), and housed with unlimited access to food before the experiment while water available. Each group except the control group was oral administration of TP (CN) single drug decoction, TP-TF co-decoction (CM) and TP-TF mixed decoction (CB) at a dosage of 5 g/kg, 10 g/kg, 10 g/kg body weight, respectively. Blood samples (0.5 mL) were collected at certain time points and placed at a 1.5 mL tube before oral (0 min) and after oral (5, 15, 30, 45, 60, 120, 240, 360, 480, 720 and 1440 min) administration. Afterwards all the blood samples were centrifuged at 13,000 rpm for 10 min and stored at −80 °C until analysis.
The mean plasma concentration-time profiles of typhaneoside, vanillic acid and p-coumaric acid were determined after oral administration with different compatibility of Typhae Pollen-Trogopterus Feces drug pair in rats, the concentration-time curves are presents in Fig. 3, and the noncompartment model pharmacokinetic parameters including maximum plasma concentration (Cmax), time to reach the maximum concentrations (Tmax), half-time (T1/2), area under concentration-time curve (AUC 0~t) are summarized in Table 2.

Setting [1] is: in vivo, 5 g/kg, oral TP single drug decoction (CN).
The mark [2] stands for this setting: in vivo, 10 g/kg, oral TP-TF co-decoction (CM).
Setting [3] is: in vivo, 10 g/kg, oral TP-TF mixed decoction (CB).
Setting [4] is: oral TP single drug decoction (CN), 5 g/kg.
[5] abbreviates: oral TP-TF co-decoction (CM), 10 g/kg.
[6] abbreviates: oral TP-TF mixed decoction (CB), 10 g/kg.
The mark [7] stands for this setting: plasma, 5 g/kg, oral TP single drug decoction (CN).
The mark [8] stands for this setting: plasma, 10 g/kg, oral TP-TF co-decoction (CM).
[9] abbreviates: plasma, 10 g/kg, oral TP-TF mixed decoction (CB).

On to `COc1cc(-c2oc3cc(O)cc(O)c3c(=O)c2O[C@@H]2O[C@H](CO[C@@H]3O[C@@H](C)[C@H](O)[C@@H](O)[C@H]3O)[C@@H](O)[C@H](O)[C@H]2O[C@@H]2O[C@@H](C)[C@H](O)[C@@H](O)[C@H]2O)ccc1O` [Typhaneoside, typhaneoside], for which the peak level under setting [1] (Cmax) was 76.4 ± 53.2 ng/mL, the peak level under setting [2] (Cmax) was 371 ± 316 ng/mL and the concentration under setting [3] peaked (Cmax) at 214 ± 73.7 ng/mL. In addition, the Tmax worked out at 2.95 ± 2.88 h under setting [1], 0.24 ± 0.15 h under setting [2] and 0.21 ± 0.08 h under setting [3]. The half-life reads like this: under setting [1], 3.35 ± 2.58 h; under setting [2], 1.91 ± 1.26 h; under setting [3], 1.37 ± 0.54 h. In addition, the “AUC0~t” value under setting [4] is 268.31 ± 167.71 ng/h/mL, the “AUC0~t” value under setting [5] came out at 333.46 ± 191.84 ng/h/mL and the “AUC0~t” value under setting [6] is listed as 275.62 ± 206.06 ng/h/mL.

On to `COc1cc(C(=O)O)ccc1O` [Vanillic acid, vanillic acid], for which the Cmax is, setting by setting: under setting [7], 2210 ± 1190 ng/mL; under setting [8], 3870 ± 2530 ng/mL; under setting [9], 1450 ± 501 ng/mL. In addition, the Tmax runs as follows: under setting [7], 1.25 ± 0.71 h; under setting [8], 1.47 ± 3.2 h; under setting [9], 0.17 ± 0.09 h. Besides, the half-life is 3.69 ± 0.87 h under setting [7], 11.2 ± 13.6 h under setting [8] and 8.88 ± 3.76 h under setting [9]. Further, the “AUC0~t” value is, setting by setting: under setting [4], 10445.53 ± 4148.68 ng/h/mL; under setting [5], 14137.57 ± 4540.37 ng/h/mL; under setting [6], 6193.78 ± 4499.17 ng/h/mL.

For the compound `O=C(O)/C=C/c1ccc(O)cc1` [P-coumaric acid, p-coumaric acid], the Cmax came out at 4900 ± 1890 ng/mL under setting [7], 5110 ± 3670 ng/mL under setting [8] and 4190 ± 844 ng/mL under setting [9]. In addition, the Tmax was determined as 1.08 ± 1.67 h under setting [7], 1.42 ± 1.39 h under setting [8] and 0.46 ± 0.4 h under setting [9]. For the same compound, the half-life by setting is: under setting [7], 3.67 ± 1.82 h; under setting [8], 10.1 ± 7.86 h; under setting [9], 10.1 ± 10.2 h. Moreover, the “AUC0~t” value turned out to be 36881.01 ± 25783.25 ng/h/mL under setting [4], 41512.56 ± 41763.28 ng/h/mL under setting [5] and 17689.11 ± 3882.21 ng/h/mL under setting [6].
